Assay results reported in PMC5207132, “New Insights into the Cyclic Di-adenosine Monophosphate (c-di-AMP) Degradation Pathway and the Requirement of the Cyclic Dinucleotide for Acid Stress Resistance in Staphylococcus aureus” (The Journal of Biological Chemistry, 2016).

Experiments:
GdpP = target: T1, GdpP (Staphylococcus aureus, UniProt A0A0H2XJV8); experiment: radiolabelled c-di-AMP hydrolysis, TLC; format: biochemical
T1 construct: gene SAUSA300_0014

Pde2 = target: T2, Pde2 (Staphylococcus aureus, UniProt A0A0H2XFX6); experiment: radiolabelled pApA hydrolysis, TLC; format: biochemical
T2 construct: gene SAUSA300_1650
T2 sequence (A0A0H2XFX6 entry or part of it): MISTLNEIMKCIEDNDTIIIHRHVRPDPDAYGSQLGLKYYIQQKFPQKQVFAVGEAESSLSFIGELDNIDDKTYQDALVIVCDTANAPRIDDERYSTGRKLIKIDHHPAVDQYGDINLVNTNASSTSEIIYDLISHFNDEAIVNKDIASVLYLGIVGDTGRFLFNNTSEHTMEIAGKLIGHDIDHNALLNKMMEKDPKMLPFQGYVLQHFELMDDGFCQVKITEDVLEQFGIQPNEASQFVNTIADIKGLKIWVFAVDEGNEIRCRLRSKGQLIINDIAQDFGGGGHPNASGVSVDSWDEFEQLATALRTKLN

T1 sequence (A0A0H2XJV8 entry or part of it): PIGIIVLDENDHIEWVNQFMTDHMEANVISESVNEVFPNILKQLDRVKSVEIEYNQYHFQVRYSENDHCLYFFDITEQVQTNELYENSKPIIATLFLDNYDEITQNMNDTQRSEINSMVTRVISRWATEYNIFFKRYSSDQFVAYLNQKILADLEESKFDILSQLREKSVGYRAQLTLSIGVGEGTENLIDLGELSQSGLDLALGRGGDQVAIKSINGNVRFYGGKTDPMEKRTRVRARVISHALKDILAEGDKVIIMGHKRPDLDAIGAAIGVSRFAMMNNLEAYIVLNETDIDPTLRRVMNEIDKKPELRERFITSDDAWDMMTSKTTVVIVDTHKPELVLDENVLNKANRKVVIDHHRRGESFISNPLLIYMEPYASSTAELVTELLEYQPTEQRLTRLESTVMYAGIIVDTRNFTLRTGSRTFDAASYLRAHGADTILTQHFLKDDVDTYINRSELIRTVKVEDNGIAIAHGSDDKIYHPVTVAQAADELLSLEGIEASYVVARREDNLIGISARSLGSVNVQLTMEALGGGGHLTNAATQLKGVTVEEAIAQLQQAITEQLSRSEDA

Compound | IC50 (GdpP) [µM] | IC50 (Pde2) [µM]
Nc1ncnc2c1ncn2[C@@H]1O[C@H](COP(=O)(O)O[C@H]2[C@@H](O)[C@H](n3cnc4c(N)ncnc43)O[C@@H]2COP(=O)(O)O)[C@@H](O)[C@H]1O [pApA] | 78 ± 2.34 | 
Nc1nc2c(ncn2[C@@H]2O[C@H](COP(=O)(O)OP(=O)(O)O)[C@@H](OP(=O)(O)OP(=O)(O)O)[C@H]2O)c(=O)[nH]1 [ppGpp] |  | 139 ± 5.6
